# Test results from US6291470A, “Indole derivatives process for producing the same and medicinal uses of the same” (Toray Industries, Inc., priority 1992, dated 2001).
# Read-outs that look alike come from different tables or passages of the source.
# Tests used:
# [1] = test system: delayed type hypersensitivity; assay: Mouse Delayed Type Hypersensitivity Reaction Suppression Test-3 (administration into cerebral ventricles); assay type: in vivo; details: 5×10^-8 mol/mouse into cerebral ventricles; BALB/c
# Text: (§1) BALB/c mice (male, 7 weeks old) were used, and each group consisted of 4-5 mice. Spleen cells (1×10^7) obtained from a donor mouse (C57BL/6) was subcutaneously administered to sensitize the mice. On Day 7 from the sensitization, the spleen cells (5×10^6) of the donor were subcutaneously administered on the right footpad and spleen cells (5×10^6) obtained from a mouse of the same strain as the recipient mice were subcutaneously administered on the left footpad. Twenty four hours later, the thicknesses of the right and left footpads were measured with a dial thickness gage, and the difference in thicknesses of the right and left footpads before the induction of the reaction and 24 hours after the induction of the reaction was employed as the index of the degree of the reaction.
# The test compound was dissolved in water and 5×10^-8 mol/mouse was administered into cerebral ventricles. In the control group, water alone was administered similarly. The dose was 5 μl/mouse in both the study groups and the control group.
# [2] = test system: delayed type hypersensitivity; assay: Mouse Delayed Type Hypersensitivity Reaction Suppression Test-2 (donor spleen cells, subcutaneous administration); assay type: in vivo; details: C57BL/6 spleen cells; subcutaneous everyday from day of sensitization, totally 8 days; BALB/c
# Text: as §1, with “cells (1×10^7 )” for “cells (1×10^7)”, “right hing leg” for “right footpad”, “same line” for “same strain”
# The test compound was dissolved in 10% DMSO-water and was subcutaneously administered everyday from the day of sensitization to the day of induction of the reaction, totally 8 days. In the control group, 10% DMSO-water alone was administered in the same manner. The volume of administration was 10 ml/kg in both study groups and in the control group. Delayed Type Hypersensitivity Reaction=(thickness of right foodpad after induction-thickness of right footpad before induction)-(thickness of […] before induction) [formula]
# wherein C means delayed type hypersensitivity reaction of the group to which the test compound was administered and D means the delayed type hypersensitivity reaction of the group to which vehicle was administered.
# [3] = target: T1, δ-opioid receptor (Mus musculus, UniProt P32300); assay: Change in δ-antagonist activity against DPDPE with time in mouse vas deferens (MVD); details: for Ratio of IC50 Values / Kb: 173 and NTI at 20 nM, 174 and 5'-NTII at 100 nM; for Kb: read-out: Ke
# T1 construct: from tissue; host or cells: vas deferens of male ddy mice
# T1 sequence (P32300 whole entry): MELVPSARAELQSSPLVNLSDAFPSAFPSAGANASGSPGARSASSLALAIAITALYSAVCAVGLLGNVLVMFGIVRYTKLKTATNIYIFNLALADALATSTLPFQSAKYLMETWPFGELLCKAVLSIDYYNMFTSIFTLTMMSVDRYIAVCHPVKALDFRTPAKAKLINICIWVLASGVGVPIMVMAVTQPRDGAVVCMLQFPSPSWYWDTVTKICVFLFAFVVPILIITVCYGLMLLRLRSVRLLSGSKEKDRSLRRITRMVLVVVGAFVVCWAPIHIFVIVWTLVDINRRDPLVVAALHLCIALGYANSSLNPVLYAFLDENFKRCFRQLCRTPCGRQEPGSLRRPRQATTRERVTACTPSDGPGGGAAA
# Procedure: In this experiment, ddy male mice were used. In a Magnus' tube which is filled with Krebes-Henseleit solution (NaCl […]; KCl 4.7 mM; CaCl2 2.5 mM; KH2 PO4 1.1 mM; NaHCO3 25 mM; glucose 11 mM) kept at 37° C., and into which an atmosphere consisting of 5% carbon dioxide and 95% oxygen was flown, vas deferens taken from the animals was suspended. Electric stimulation was applied through ring-shaped platinum electrodes mounted on the upper and lower portions of the tube at a frequency of 0.1 Hz and 5.0 mS duration. The contraction of the tissue was recorded on polygraph using isometric transducer.
# Then 100 nM of the test compound was added. Twenty minutes later, DPDPE was begun to be added cumulatively. The ratio of IC50 values in the presence and absence of the test compound, Ke value (the molar concentration of the test compound necessary for translating the dose-effect curve to the curve of twice dose) and pA2 value were determined. The pA2 value was determined by the method of Shild et al (Shild, H. O., Br. J. Pharmac. Chamotehr., 4, 277 (1949)). That is, the logarithm of the test compound (log[test compound]) was plotted along the abscissa and the logarithm of the value obtained by subtracting 1 from the ratio of IC50 values was plotted in the presence and absence of the test compound [log(dose ratio-1)] along the ordinate. The pA2 value was determined from the value on the abscissa when the value on the ordinate of the obtained line is 0.
# Using MVD, the antagonist activities of compounds 173 and 174 against DPDPE were determined. The ratio of IC50 values, Ke values and pA2 values at 15 minutes, 30 minutes and 1 hour from the addition of the test compounds were calculated. Since the concentrations of the test compounds are different, the reciprocals of Ke values were plotted in FIGS. 1 and 2.
# [4] = test system: delayed type hypersensitivity; assay: Delayed type hypersensitivity suppression test using mice from which adrenal glands have been removed; assay type: in vivo, mouse; details: for % Suppression: subcutaneous, totally 8 days
# Text: The mechanism of immunosuppression of the compound of the present invention was examined using delayed type hypersensitivity suppression test using mice from which adrenal glands have been removed.
# as §1
# The adrenectomy was performed by cutting the back of each recipient mouse under anesthesia with ether before the sensitization and removing the adrenal gland. Sham operation was performed by cutting the back of each recipient mouse but not removing the adrenal gland.
# The test compound was dissolved in 10% DMSO-water and was subcutaneously administered everyday from the day of sensitization to the day of induction of the reaction, totally 8 days. In the control group, 10% DMSO-water alone was administered in the same manner. The volume of administration was 10 ml/kg in both study groups and in the control groups.
# [5] = test system: delayed type hypersensitivity; assay: Mouse Delayed Type Hypersensitivity Reaction Suppression Test-1 (SRBC); assay type: in vivo; details: SRBC sensitization; subcutaneous, everyday from 3 days before sensitization, totally 8 days; BALB/c
# Procedure: BALB/c mice (male, 7 weeks old) were used. The mice were classified into groups depending on the body weight, each group consisting of 7-8 mice. Each of the mice was sensitized by subcutaneously administering […] of SRBC (8×10^8 in saline) on the heel of the left hing leg. On day 4 from the sensitization, 25 μl of SRBC (8×10^9 in saline) was subcutaneously administered on the right footpad so as to induce delayed type hypersensitivity. The difference in the thicknesses of the right footpad before the induction of reaction and 24 hours after the induction of the reaction was employed as an index of the degree of the reaction.
# The test compound was dissolved in 10% DMSO-water and was subcutaneously administered everyday from 3 days before the sensitization to the day of induction of the reaction, totally 8 days. In the control group, 10% DMSO-water alone was administered in the same manner. The volume of administration was 5 ml/kg in both study groups and in the control group.
# The % suppression of the delayed type hypersensitivity reaction was calculated according to the following equation: [formula]
# wherein A means the difference in the thickness of the right hind leg before and after the reaction in control group, and B means the difference in the thickness of the right hind leg before and after the reaction in the group to which the test compound was administered.
structure (smiles),measurement,setting,value
"Oc1ccc2c3c1O[C@H]1c4[nH]c5ccccc5c4C[C@@]4(O)[C@@H](C2)N(CC2CC2)CC[C@]314 [NTI, reference compound]",% Suppression,[1],40%
same,% Suppression,[2],60%
same,Ratio of IC50 Values,[3]; 15 min,96.3
same,Kb,[3]; 15 min,0.21 nM
same,change of antagonist activity with time (in words),[3]; 15 min to 1 hour,did not change
same,Ratio of IC50 Values,[3]; 30 min,95.6
same,Kb,[3]; 30 min,0.21 nM
same,Ratio of IC50 Values,[3]; 60 min,83.7
same,Kb,[3]; 60 min,0.24 nM
same,suppressive effect after removing adrenal gland (in words),[4]; Adrenectomy vs sham,disappeared by removing adrenal gland
same,% Suppression,[4]; Adrenectomy,0%
same,% Suppression,[4]; Sham Operation,50%
same,% Suppression,[5],did not suppress
